From patent US11028090B2 (Dong Wha Pharm. Co., Ltd., priority 2017, dated 2021)
Like-named read-outs stand apart in the source and are kept apart here.

Legend:
[1] = target: BRD4 (BD1+BD2) bromodomain (Homo sapiens (Human), UniProt O60885); assay: BRD4 binding inhibition (AlphaScreen, GST-BRD4 vs tetraacetylated histone H4 peptide)
Summary of the method: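 GST-BRD4 (BD1+BD2) and biotinylated tetraacetyl-histone H4 peptide, each at 100 nM in HEPES pH 7.4 buffer with BSA and DTT, were combined with compound. Glutathione acceptor and streptavidin donor beads were added, then incubated 30 min at room temperature in the dark. Read-out was AlphaScreen signal.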

[2] = tested on: acute myelogenous leukemia cells (MV-4-11 cells); assay: Cytotoxicity to acute myelogenous leukemia cells (MV-4-11 cells), CCK-8
[3] = GST-BRD4 (BD1+BD2) / biotinylated acetyl-histone H4 (Lys5,8,12,16) peptide, read-out: IC50, BRD4 binding inhibition
[4] = GST-BRD4 (BD1+BD2) vs biotinylated acetyl-histone H4 peptide, AlphaScreen, read-out: BRD4 IC50
[5] = Homo sapiens, MV4-11, 72 h, read-out: MV-4-11 Cytotoxicity IC50
[6] = Homo sapiens, MV4-11, 72 h, read-out: IC50, cytotoxicity against acute myelogenous leukemia cells

| IC50 [1, 3] [nM] | IC50 [1, 4] [nM] | SMILES | IC50 [2, 5] [nM] | IC50 [2, 6] [nM] | IC50 ([2]; read-out: MV-4-11 Cytotoxicity IC50, MV-4-11 cells, 72 hours, CCK-8) [nM] |
| --- | --- | --- | --- | --- | --- |
| ≤ 10 | 5 | Cc1noc(C)c1-c1ccc2c(c1)nc(NCCCCNC(=O)CC(C)C)c1nnc(C)n12 [Example 585, N-{4-[7-(3,5-dimethyl-isoxazol-4-yl)-1-methyl-[1,2,4]triazolo[4,3-a]quinoxaline-4-ylamino]-butyl}-3-methyl-butyramide] | 280 | – | – |
| ≤ 10 | 8 | Cc1nnc2c(NCCCCNC(=O)CC(C)C)nc3cc(F)c(F)cc3n12 [Example 37, N-[4-(7,8-difluoro-1-methyl-[1,2,4]triazolo[4,3-a]quinoxaline-4-ylamino)-butyl]-3-methyl-butyramide] | 121 | ≤ 200 | – |
| ≤ 10 | 6 | Cc1nnc2c(NCCCCNC(=O)[C@@H](O)C(C)C)nc3cc(F)c(F)cc3n12 [Example 39, N-[4-(7,8-difluoro-1-methyl-[1,2,4]triazolo[4,3-a]quinoxaline-4-ylamino)-butyl]-2-(S)-hydroxy-3-methyl-butyramide] | 190 | – | – |
| ≤ 10 | 4 | CCOc1cc2nc(NCCCCNC(=O)OC(C)(C)C)c3nnc(C)n3c2cc1OCC [Example 173] | 360 | – | – |
| ≤ 50 | 15 | CCC(C)CC(=O)NCCCCNc1nc2cc(OC)c(OC)cc2n2c(C)nnc12 (stereo not drawn) [Example 73, 3-methyl-pentanoic acid-[4-(7,8-dimethoxy-1-methyl-[1,2,4]triazolo[4,3-a]quinoxaline-4-ylamino)-butyl]-amide] | 10 | ≤ 200 | – |
| ≤ 50 | 18 | COc1cc2nc(NCCCCNC(=O)C=C(C)C)c3nnc(C)n3c2cc1OC [Example 71, 3-methyl-butene-2-oic acid-[4-(7,8-dimethoxy-1-methyl-[1,2,4]triazolo[4,3-a]quinoxaline-4-ylamino)-butyl]-amide] | 110 | ≤ 200 | – |
| – | 52 | COc1cc2c(cc1C)nc(NCCCCNC(=O)CC(C)C)c1nnc(C)n12 [Example 151, N-[4-(8-methoxy-1,7-dimethyl-[1,2,4]triazolo[4,3-a]quinoxaline-4-ylamino)-butyl]-3-methyl-butyramide] | 380 | – | – |
| ≤ 50 | 16 | COCCOc1ccc2c(c1)nc(NCCCCNC(=O)c1ccccc1OC)c1nnc(C)n12 [Example 414, 2-methoxy-N-{4-[7-(2-methoxy-ethoxy)-1-methyl-[1,2,4]triazolo[4,3-a]quinoxaline-4-ylamino]-butyl}-benzamide] | 630 | – | – |
| ≤ 10 | 10 | Cc1nnc2c(NCCCCNC(=O)Cc3cccs3)nc3cc(-n4ccnc4)ccc3n12 [Example 496, N-[4-(7-imidazole-1-yl-1-methyl-[1,2,4]triazolo[4,3-a]quinoxaline-4-ylamino)-butyl]-2-thiophene-2-yl-acetamide] | 20 | ≤ 200 | – |
| ≤ 50 | 27 | COc1cc2nc(NCCCCC(=O)NCc3ccc[nH]3)c3nnc(C)n3c2cc1OC [Example 652, 5-(7,8-dimethoxy-1-methyl-[1,2,4]triazolo[4,3-a]quinoxaline-4-ylamino)-pentanoic acid-(1H-pyrrole-2-ylmethyl)-amide] | 200 | ≤ 200 | – |
| – | 52 | COc1c(C)ccc2c1nc(NCCCCNC(=O)c1ccccc1Cl)c1nnc(C)n12 [Example 140, 2-chloro-N-[4-(6-methoxy-1,7-dimethyl-[1,2,4]triazolo[4,3-a]quinoxaline-4-ylamino)-butyl]-benzamide] | 680 | – | – |
| ≤ 50 | 14 | COCCOc1ccc2c(c1)nc(NCCCCNC(=O)C=C(C)C)c1nnc(C)n12 [Example 378, 3-methyl-butene-2-oic acid-{4-[7-(2-methoxy-ethoxy)-1-methyl-[1,2,4]triazolo[4,3-a]quinoxaline-4-ylamino]-butyl}-amide] | 290 | – | – |
| ≤ 50 | – | COc1ccc2c(nc(NCCCCNC(=O)OCC(C)C)c3nnc(C)n32)c1Cl [Example 462, [4-(6-chloro-7-methoxy-1-methyl-[1,2,4]triazolo[4,3-a]quinoxaline-4-ylamino)-butyl]-carbamic acid isobutylester] | 600 | – | – |
| – | – | CSc1ccc2c(c1)nc(NCCCCNC(=O)CC(C)C)c1nnc(C)n12 [Example 356, 3-methyl-N-[4-(1-methyl-7-methylsulfanyl-[1,2,4]triazolo[4,3-a]quinoxaline-4-ylamino)-butyl]-butyramide] | 143 | ≤ 200 | – |
| – | – | Cc1nnc2c(NCCCCNC(=O)CC(C)C)nc3cc(NC(=O)NC(C)C)ccc3n12 [Example 255, N-{4-[7-(3-isopropyl-ureido)-1-methyl-[1,2,4]triazolo[4,3-a]quinoxaline-4-ylamino]-butyl}-3-methyl-butyramide] | 93 | ≤ 200 | – |
| – | – | Cc1nnc2c(NCCCCNC(=O)[C@@H](NC(=O)CC(C)C)C(C)C)nc3cc(N4C[C@@H](C)O[C@@H](C)C4)ccc3n12 [Example 518, (S)-N-{4-[7-(2,6-dimethyl-morpholine-4-yl)-1-methyl-[1,2,4]triazolo[4,3-a]quinoxaline-4-ylamino]-butyl}-3-methyl-2-(3-methyl-butyrylamino)-butyramide] | 480 | – | – |
| – | – | CNc1ccc2c(c1)nc(NCCCCNC(=O)CC(C)C)c1nnc(C)n12 [Example 252, 3-methyl-N-[4-(1-methyl-7-methylamino-[1,2,4]triazolo[4,3-a]quinoxaline-4-ylamino)-butyl]-butyramide] | 254 | – | – |
| – | – | COc1cc2nc(NCCCCNC(=O)CC(C)C)c3nnc(C)n3c2cc1N(S(C)(=O)=O)S(C)(=O)=O [Example 566, N-[4-(8-dimethanesulfonyl-amino-7-methoxy-1-methyl-[1,2,4]triazolo[4,3-a]quinoxaline-4-ylamino)-butyl]-3-methyl-butyramide] | – | – | 550 |
| – | – | Cc1nnc2c(NCCCCNC(=O)OC(C)(C)C)nc3cc(N4CCc5sccc5C4)ccc3n12 [Example 526, {4-[7-(6,7-dihydro-4H-thiano[3,2-c]pyridine-5-yl)-1-methyl-[1,2,4]triazolo[4,3-a]quinoxaline-4-ylamino]-butyl}-carbamic acid-tert-butylester] | 802 | – | – |
| – | – | Cc1noc(C)c1-c1ccc2c(c1)nc(NCCCCN)c1nnc(C)n12 [Example 584, N^1-[7-(3,5-dimethyl-isoxazol-4-yl)-1-methyl-[1,2,4]triazolo[4,3-a]quinoxaline-4-yl]-butane-1,4-diamine ditrifluoroacetic acid] | 130 | ≤ 200 | – |
| – | – | COc1ccc2c(c1)nc(NCCCCNC(=O)C1CC1)c1nnc(C)n12 [Example 282, cyclopropane; carboxylic acid-[4-(7-methoxy-1-methyl-[1,2,4]triazolo[4,3-a]quinoxaline-4-ylamino)-butyl]-amide] | 534 | – | – |
| – | – | COCCOc1cc2c(cc1OC)nc(NCCCCN)c1nnc(C)n12 [Example 484, N^1-[7-methoxy-8-(2-methoxy-ethoxy)-1-methyl-[1,2,4]triazolo[4,3-a]quinoxaline-4-yl]-butane-1,4-diamine ditrifluoroacetic acid] | 460 | – | – |
| – | – | COCCOc1cc2c(cc1OC)nc(NCCCCNC(=O)OC(C)(C)C)c1nnc(C)n12 [Example 483, {4-[7-methoxy-8-(2-methoxy-ethoxy)-1-methyl-[1,2,4]triazolo[4,3-a]quinoxaline-4-ylamino]-butyl}-carbamic acid-tert-butylester] | 460 | – | – |
| – | – | Cc1nnc2c(NCCCCNC(=O)C(C)(C)C)nc3cc(OC(F)(F)F)ccc3n12 [Example 271, 2,2-dimethyl-N-[4-(1-methyl-7-trifluoromethoxy-[1,2,4]triazolo[4,3-a]quinoxaline-4-ylamino)-butyl]-propionamide] | 880 | – | – |
| – | – | Cc1nnc2c(NCCCCNC(=O)C(C)(C)C)nc3ccc(OC(F)(F)F)cc3n12 [Example 265, 2,2-dimethyl-N-[4-(1-methyl-8-trifluoromethoxy-[1,2,4]triazolo[4,3-a]quinoxaline-4-ylamino)-butyl]-propionamide] | 680 | – | – |
| – | – | Cc1nnc2c(NCCCCNC(=O)OC(C)C)nc3cc(OC(C)C)ccc3n12 [Example 452, [4-(7-isopropoxy-1-methyl-[1,2,4]triazolo[4,3-a]quinoxaline-4-ylamino)-butyl]-carbamic acid isopropylester] | 320 | – | – |
| – | – | Cc1nnc2c(NCCCCNC(=O)CC(C)C)nc3cc(NC(=S)NC(C)C)ccc3n12 [Example 256, N-{4-[7-(3-isopropyl-thioureido)-1-methyl-[1,2,4]triazolo[4,3-a]quinoxaline-4-ylamino]-butyl}-3-methyl-butyramide] | 84 | ≤ 200 | – |
| – | – | Cc1nnc2c(NCCCCNC(=O)CC(C)C)nc3cc(NS(=O)(=O)C(C)C)ccc3n12 [Example 259, 3-methyl-N-{4-[1-methyl-7-(propane-2-sulfonylamino)-[1,2,4]triazolo[4,3-a]quinoxaline-4-ylamino]-butyl}-butyramide] | 339 | – | – |
| – | – | COc1cc2nc(NCCCCNC(=O)OC(C)(C)C)c3nnc(C)n3c2cc1F [Example 572, [4-(8-fluoro-7-methoxy 1-methyl-[1,2,4]triazolo[4,3-a]quinoxaline-4-ylamino)-butyl]-carbamic acid-tert-butylester] | 238 | – | – |
| – | – | COc1cc2c(cc1OCCN1CCOCC1)nc(NCCCCNC(=O)CC(C)C)c1nnc(C)n12 [Example 577, N-{4-[8-methoxy-1-methyl-7-(2-morpholine-4-yl-ethoxy)-[1,2,4]triazolo[4,3-a]quinoxaline-4-ylamino]-butyl}-3-methyl butyramide] | 87 | ≤ 200 | – |
